Assay results: PubChem BioAssay AID493142 (Sanford-Burnham Center for Chemical Genomics, 2011)
pIC50: −log10 of the molar value. Where “and” joins values, the source holds several entries; their conditions need not be identical. Equal values may be shown once. Calls of active or inactive are those of the source.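 Rule for the calls: active = mean IC50 below 100 µM; inactive = the rest.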

target: Intestinal alkaline phosphatase (Alpi) [Mus musculus]; assay: mouse IAP inhibition by analogs, SAR follow-up, selectivity assay for human IAP inhibitor project, biochemical, ortholog specificity, luminescence (AID 493142); conditions: Purified mouse IAP, CDP-Star luminescence, 30 min

Structure (SMILES)	IC50	pIC50
COc1cc(C=NN=C2SC(CC(=O)O)C(=O)N2c2ccc(O)cc2)ccc1O (stereo unspecified)	> 100 µM (inactive)	
Cc1c(Cl)cccc1Nc1nc(-c2ccc(O)c(O)c2)cs1		5.35 and 4.92
COc1ccc(C=NN=C2SC(CC(=O)O)C(=O)N2c2ccc(O)cc2)cc1 (stereo unspecified)	> 100 µM (inactive)	
COc1ccc(Cl)cc1Nc1nc(-c2ccc(O)c(O)c2)cs1		5.28 and 5.33
COc1cc([N+](=O)[O-])ccc1NC(=S)NCCC(c1ccccc1)c1ccccc1	> 100 µM (inactive)	
Cc1ccc(Nc2nc(-c3ccc(O)cc3O)cs2)cc1C	> 100 µM (inactive)	
Cc1ccc2nc(NNC(=O)c3ccc4c(c3)OCCO4)sc2c1		4.24
Cc1cccc(Nc2nc(-c3ccc(O)c(O)c3)cs2)c1		5.11
Cc1cccc(NC(=S)NNC(=O)c2ccc3c(c2)OCO3)c1		4.23
O=[N+]([O-])c1ccccc1NC(=S)NN=Cc1ccc(O)c(O)c1		5.18
CCOc1cc(/C=N/N=C2\NC(=O)C(CC(=O)O)S2)ccc1O (stereo unspecified)	> 100 µM (inactive)	
COC(=O)/C=C1/S/C(=N/NC(=O)c2ccccc2OC)NC1=O	> 100 µM (inactive)	
Cc1cc(=O)oc2cc(NC(=S)NCCC(c3ccccc3)c3ccccc3)ccc12	> 100 µM (inactive)	
O=[N+]([O-])c1ccc(NC(=S)NCCC(c2ccccc2)c2ccccc2)cc1	> 100 µM (inactive)	
Cc1cccc(Nc2nc(-c3ccc(O)c(C(N)=O)c3)cs2)c1	> 100 µM (inactive)	
COC(=O)/C=C1/S/C(=N/NC(=O)c2ccc(Cl)cc2Cl)NC1=O	> 100 µM (inactive)	
S=C(NCCC(c1ccccc1)c1ccccc1)Nc1ccc(Cl)cc1Cl	> 100 µM (inactive)	
Cc1ccc(Cl)cc1Nc1nc(-c2ccc(O)c(O)c2)cs1		5.41
COc1cc(C(=O)NNC(=S)Nc2ccc(S(N)(=O)=O)cc2)cc(OC)c1OC	> 100 µM (inactive)	
FC(F)(F)c1cccc(NC(=S)NCCC(c2ccccc2)c2ccccc2)c1	> 100 µM (inactive)	
COC(=O)C/C=N/N=C1\NC(=O)/C(=C/C(=O)O)S1	> 100 µM (inactive)	
COc1cc(C=NNC(=S)Nc2cccc(C(=O)O)c2)ccc1O	> 100 µM (inactive)	
CCN(CC)S(=O)(=O)c1ccc(-c2csc(=Nc3cccc4ccccc34)n2C)cc1	> 100 µM (inactive)	
COc1ccc(-c2csc(Nc3cccc4ccccc34)n2)cc1F	> 100 µM (inactive)	
Cc1ccc(C)c(Nc2nc(-c3ccc(O)cc3O)cs2)c1	> 100 µM (inactive)	
O=S(=O)(c1ccc(NC(=S)N/N=C/c2ccc(O)c(O)c2)cc1)N1CCOCC1		5.99

Structure (SMILES)	IC50	pIC50
CN(C)S(=O)(=O)c1cccc(NC(=S)NN=Cc2ccc(O)c(O)c2O)c1		4.56
O=[N+]([O-])c1ccccc1NC(=S)N/N=C/c1ccc(O)c(O)c1O		4.65
O=S(=O)(c1ccc(NC(=S)N/N=C/c2ccc(O)c(O)c2O)cc1)N1CCOCC1		4.09
Cc1ccc2sc(NNC(=O)c3ccc4c(c3)OCCO4)nc2c1C	> 100 µM (inactive)	
COC(=O)/C=C1\S/C(=N/N=C/CC(=O)OC)NC1=O	> 100 µM (inactive)	
CCOc1ccc(Nc2nc(-c3ccc(O)c(O)c3)cs2)cc1		5.16
Cc1ccc(Nc2nc(-c3ccc(O)c(C(N)=O)c3)cs2)cc1	> 100 µM (inactive)	
COC(=O)/C=C1/S/C(=N/NC(=O)c2ccccc2)NC1=O	> 100 µM (inactive)	
COc1ccc(C=NNC(=S)Nc2ccccc2[N+](=O)[O-])cc1O	> 100 µM (inactive)	
Oc1ccc(-c2csc(Nc3ccc(F)cc3)n2)cc1O		5.25
Cc1ccc(Nc2nc(-c3ccc(O)cc3O)cs2)cc1F	> 100 µM (inactive)	
Cc1cccc2sc(NNC(=O)c3ccc4c(c3)OCCO4)nc12		4.12
Cc1cc(C)cc(Nc2nc(-c3ccc(O)cc3O)cs2)c1	> 100 µM (inactive)	
COc1cccc(Nc2nc(-c3ccc(O)cc3)cs2)c1	> 100 µM (inactive)	
O=S(=O)(Nc1ncccn1)c1ccc(NC(=S)NCCC(c2ccccc2)c2ccccc2)cc1	> 100 µM (inactive)	
COc1ccc(NC(=S)NCCC(c2ccccc2)c2ccccc2)cc1	> 100 µM (inactive)	
CC(=NNC(=S)Nc1ccccc1)c1ccc2c(c1)OCO2	> 100 µM (inactive)	
COc1cc([N+](=O)[O-])ccc1NC(=S)NNC(=O)c1ccc2c(c1)OCO2		4.02
COc1ccc(C(=O)NNC(=S)NC2CCCCC2)cc1OC		4.06
Cc1ccc(-c2ccc(/C=N/N=C3\NC(=O)C(CC(=O)O)S3)o2)c([N+](=O)[O-])c1 (stereo unspecified)	> 100 µM (inactive)	
COc1ccc(C=Nn2c(=S)n(C)c3ccccc32)cc1OC	> 100 µM (inactive)	
NS(=O)(=O)c1ccc(Nc2nc(-c3ccc(O)c(O)c3)cs2)cc1		5.68
N#CCCn1cc(/C=N/N=C2/NC(=O)C(CC(=O)O)S2)c(-c2ccc(F)cc2)n1 (stereo unspecified)	> 100 µM (inactive)	
Oc1ccc(-c2csc(Nc3cccc4ccccc34)n2)cc1O		5.57 and 5.28
COC(=O)/C=C1/S/C(=N/N=Cc2ccc(N(C)C)cc2)NC1=O	> 100 µM (inactive)	
Cc1ccc(Nc2nc(-c3ccc(O)c(O)c3)cs2)cc1		5.18

Structure (SMILES)	IC50	pIC50
COC(=O)/C=C1/S/C(=N/NC(=O)c2ccc(OC)cc2)NC1=O	> 100 µM (inactive)	
COc1cc(/C=N/N=C2/SCC(=O)N2c2ccc(O)cc2)ccc1O	> 100 µM (inactive)	
Cc1cccc(NC(=S)NN=Cc2ccc3c(c2)OCO3)c1	> 100 µM (inactive)	
NS(=O)(=O)c1ccc(Nc2nc(-c3ccc(O)cc3O)cs2)cc1		4.31
COC(=O)/C=C1\SC(N=Nc2c(O)[nH]c3ccccc23)=NC1=O	> 100 µM (inactive)	
Oc1ccc(-c2csc(Nc3ccccc3)n2)c(O)c1	> 100 µM (inactive)	
COc1cc(/C=N/N=C2\NC(=O)C(CC(=O)O)S2)cc(OC)c1OC (stereo unspecified)	> 100 µM (inactive)	
CCOc1cc(C=NNC(=S)NC2CCCCC2)ccc1O	> 100 µM (inactive)	
Oc1ccc(Nc2nc(-c3ccc(O)c(O)c3)cs2)cc1		5.85
COc1ccc(/C=N/N=C2/NC(=O)C(CC(=O)O)S2)cc1OC (stereo unspecified)	> 100 µM (inactive)	
CCc1ccccc1Nc1nc(-c2ccc(O)c(O)c2)cs1		5.26 and 5.38
COc1cc(C=NNC(=S)Nc2cccc(S(=O)(=O)N(C)C)c2)ccc1O	> 100 µM (inactive)	
COc1ccc(/C=N/N=C2\NC(=O)C(CC(=O)O)S2)c(OC)c1 (stereo unspecified)	> 100 µM (inactive)	
CC(C)(C)c1ccc(/C=N/N=C2\NC(=O)C(CC(=O)O)S2)cc1 (stereo unspecified)	> 100 µM (inactive)	
COC(=O)/C=C1\S/C(=N/N=C/c2ccc(Cl)cc2)NC1=O	> 100 µM (inactive)	
Cc1ccc(Nc2nc(-c3ccc(O)cc3O)cs2)cc1	> 100 µM (inactive)	
COC(=O)/C=C1/S/C(=N/NC(=O)c2ccccc2C)NC1=O	> 100 µM (inactive)	
COc1cc(C=NNC(=S)Nc2cccc(S(=O)(=O)N(C)C)c2)cc(OC)c1O	> 100 µM (inactive)	
COc1ccc(-c2csc(Nc3cccc4ccccc34)n2)cc1	> 100 µM (inactive)	
O=C(O)CC1S/C(=N/N=C/c2ccco2)NC1=O (stereo unspecified)	> 100 µM (inactive)	
Cc1ccc(Nc2nc(-c3ccc(O)c(O)c3)cs2)cc1F		5.02
Cc1cccc(C)c1NC(=S)N/N=C/c1ccc(O)c(O)c1O		4.23
CCOc1cc(C=N/N=C2/NC(=O)C(CC(=O)O)S2)ccc1OCc1ccccc1Cl (stereo unspecified)	> 100 µM (inactive)	
Cn1c(=S)n(N=Cc2ccc3c(c2)OCO3)c2ccccc21	> 100 µM (inactive)	
